This note sets out measurements from ChEMBL document CHEMBL5584208, “Conformationally constrained potent inhibitors for enhancer of zeste homolog 2 (EZH2)” (Bioorg Med Chem Lett, 2024).

Broadly, the half-life is the time needed for the level to fall by half in the phase considered. The term IC50 denotes the concentration needed to halve the response being measured. What is called clearance is the volume of plasma or blood freed of the substance per unit of time. As a reminder, the AUC(0-t) is the area under the concentration-time curve up to a stated or last time point. Usually bioavailability stands for dose-corrected exposure relative to a reference, in per cent. For orientation: Cmax means the peak of the concentration-time curve. Usually AUC(0-inf) stands for total exposure, with the tail of the curve extrapolated.

Data set [1] in a line: Half life in mouse at 2 mg/kg, iv. The format is ADME, organism-based. The following applies: in vivo.
The subject of data set [2] is Pfeiffer. Briefly: Antiproliferative activity against human Pfeiffer cells harboring EZH2 A677G mutant. The format is functional, cell-based.
Data set [3] concerns KARPAS-422. Put plainly: Antiproliferative activity against human KARPAS-422 cells harboring EZH2 Y641N mutant. It is filed as functional, cell-based.
The nature of data set [4]: Clearance in mouse at 2 mg/kg, iv. It is filed as ADME, organism-based. The following applies: in vivo.
Data set [5] is described as follows: Volume of distribution at steady state in mouse at 2 mg/kg, iv. It is filed as ADME, organism-based. The conditions noted are these: in vivo, read-out: Vdss.
Data set [6] is described as follows: AUC (0 to t) in mouse at 10 mg/kg, po. The conditions noted are these: in vivo. The format is ADME, organism-based.
The next data set has as its system WSUDLCL2. Put plainly: Antiproliferative activity against human WSUDLCL2 cells harboring EZH2 Y641F mutant. The format is functional, cell-based.
The nature of data set [7]: Oral bioavailability in mouse at 10 mg/kg. The format is ADME, organism-based. The following applies: in vivo.
A short description of data set [8]: Cmax in mouse at 2 mg/kg, iv. It is filed as ADME, organism-based. The conditions noted are these: in vivo.
The nature of data set [9]: AUC (0 to t) in mouse at 2 mg/kg, iv. The format is ADME, organism-based. The following applies: in vivo.
The nature of data set [10]: AUC (0 to infinity) in mouse at 2 mg/kg, iv. The format is ADME, organism-based. The conditions noted are these: in vivo.
Data set [11] in a line: Cmax in mouse at 10 mg/kg, po. The following applies: in vivo. The format is ADME, organism-based.
Data set [12] in a line: AUC (0 to infinity) in mouse at 10 mg/kg, po. It is filed as ADME, organism-based. The conditions noted are these: in vivo.
Data set [13] is described as follows: Half life in mouse at 10 mg/kg, po. The format is ADME, organism-based. The conditions noted are these: in vivo.
The nature of data set [14]: Metabolic stability in mouse liver microsomes assessed as intrinsic clearance in hepatocytes measured per million cells. It is filed as ADME, Microsome. (In general: Microsomes from liver hold many membrane-bound enzymes, among them those of drug oxidation.)
A short description of data set [15]: Metabolic stability in human liver microsomes assessed as half life. The format is ADME, Microsome.
Data set [16] is described as follows: Toxicity in mouse xenografted with human Pfeiffer cells harboring EZH2 A677G mutant assessed as body weight loss at 100 mg/kg, po qd for 28 days. It is filed as organism-based. The following applies: in vivo, 672 h, time 28 day. A general note: In xenograft studies the graft and the host belong to different species.
The nature of data set [17]: Metabolic stability in dog liver microsomes assessed as intrinsic clearance in liver. It is filed as ADME, Canis lupus familiaris, Microsome. The following applies: read-out: CLH.
Data set [18] can be described thus: Drug concentration in human KARPAS-422 cells harboring EZH2 Y641N mutant xenografted in mouse at 100 mg/kg, po measured after 8 hrs. It is filed as ADME, organism-based. The conditions noted are these: KARPAS-422 xenograft tumour, read-out: Ct.
A short description of data set [19]: Metabolic stability in mouse liver microsomes assessed as intrinsic clearance in liver. The format is ADME, Microsome. The conditions noted are these: read-out: CLH.
Data set [20] is described as follows: Metabolic stability in monkey liver microsomes assessed as half life. The conditions noted are these: rhesus monkey. The format is ADME, Macaca mulatta, Microsome.
For data set [21], the system named is KARPAS-422. Briefly: Antitumor activity against human KARPAS-422 cells harboring EZH2 Y641N mutant xenografted in mouse at 100 mg/kg, po bid for 28 days relative to control. The format is functional. The conditions noted are these: KARPAS-422, 672 h, time 28 day, read-out: TGI.
Data set [22] can be described thus: Metabolic stability in rat liver microsomes assessed as intrinsic clearance in liver. It is filed as ADME, Microsome. The conditions noted are these: read-out: CLH.
A short description of data set [23]: Metabolic stability in human liver microsomes assessed as intrinsic clearance in liver. The following applies: read-out: CLH. It is filed as ADME, Microsome.
The nature of data set [24]: Metabolic stability in monkey liver microsomes assessed as intrinsic clearance in liver. The conditions noted are these: rhesus monkey, read-out: CLH. It is filed as ADME, Macaca mulatta, Microsome.
A short description of data set [25]: Metabolic stability in human liver microsomes assessed as intrinsic clearance in hepatocytes measured per million cells. The format is ADME, Microsome.
Data set [26] in a line: Metabolic stability in rat liver microsomes assessed as intrinsic clearance in hepatocytes measured per million cells. The format is ADME, Microsome.
Data set [27] can be described thus: Metabolic stability in rat liver microsomes assessed as half life. The format is ADME, Microsome.
Data set [28] is described as follows: Toxicity in mouse xenografted with human KARPAS-422 cells harboring EZH2 Y641N mutant assessed as body weight loss at 100 mg/kg, po bid for 28 days. It is filed as organism-based. The conditions noted are these: in vivo, 672 h, time 28 day.
Data set [29] in a line: Metabolic stability in monkey liver microsomes assessed as intrinsic clearance in hepatocytes measured per million cells. The format is ADME, Macaca mulatta, Microsome. The conditions noted are these: rhesus monkey.
Data set [30] deals with Pfeiffer. Put plainly: Antitumor activity against human Pfeiffer cells harboring EZH2 A677G mutant xenografted in mouse at 100 mg/kg, po qd for 28 days relative to control. The following applies: 672 h, time 28 day, read-out: TGI. The format is functional.
Data set [31] can be described thus: Metabolic stability in dog liver microsomes assessed as half life. The format is ADME, Canis lupus familiaris, Microsome.
Data set [32] is described as follows: Drug concentration in human KARPAS-422 cells harboring EZH2 Y641N mutant xenografted in mouse at 100 mg/kg, po measured after 4 hrs. It is filed as ADME, organism-based. The conditions noted are these: KARPAS-422 xenograft tumour, read-out: Ct.
Data set [33] is described as follows: Metabolic stability in mouse liver microsomes assessed as half life. The format is ADME, Microsome.
Data set [34] is described as follows: Metabolic stability in dog liver microsomes assessed as intrinsic clearance in hepatocytes measured per million cells. It is filed as ADME, Canis lupus familiaris, Microsome.

`CCN(c1cc(-c2ccc3c(c2)NC(=O)C32CCN(C)CC2)cc(C(=O)NCc2c(C)cc(C)[nH]c2=O)c1C)C1CCOCC1` had a half-life in [1] of 37.2 min. The IC50 was 1.98 nM with Pfeiffer [2], 2.19 nM in the data set with KARPAS-422 [3] and 3.58 nM in the data set on WSUDLCL2. In addition, the clearance in data set [4] came out at 27.9 mL/min/kg. In data set [5], the Vd is 0.688 L/kg. In addition, the values for the AUC(0-t) in data set [6] and in data set [9] were 3.4 ng·h/mL and 1230 ng·h/mL, respectively. This compound also had a bioavailability in data set [7] of 0.06%. The values for the Cmax in [8] and in [11] were 3680 ng/mL and 13.5 ng/mL, respectively. Besides, the AUC(0-inf) stood at 1230 ng·h/mL in data set [10] and 3.4 ng·h/mL in data set [12].
`CCN1C(=O)C2(CCOCC2)c2ccc(-c3cc(C(=O)NCc4c(C)cc(C)[nH]c4=O)c(C)c(N(CC)C4CCOCC4)c3)cc21`: the half-life in data set [1] is 19.2 min; in data set [13] it was 27.6 min. Also, the IC50 in the data set on Pfeiffer [2] was found to be 0.49 nM; in the data set with KARPAS-422 [3] it was 1.79 nM; in the data set on WSUDLCL2, 2.38 nM. Further, the clearance in data set [4] is 43 mL/min/kg. Further, the Vd in data set [5] is 0.803 L/kg. The AUC(0-t) turned out to be 1350 ng·h/mL in data set [6] and 818 ng·h/mL in data set [9]. The compound further displayed a bioavailability in data set [7] of 33%. Moreover, the Cmax in data set [8] turned out to be 2580 ng/mL; in data set [11], 1750 ng/mL. Moreover, the AUC(0-inf) in [10] is 831 ng·h/mL; in data set [12], 1360 ng·h/mL.
For `CCN(c1cc(-c2ccc(CN3CCOCC3)cc2)cc(C(=O)NCc2c(C)cc(C)[nH]c2=O)c1C)C1CCOCC1` [TAZEMETOSTAT], the CLH in data set [14] came out at 144.6 µL/min; in data set [25], 23.6 µL/min; in [26], 74.1 µL/min; in [29], 65.9 µL/min; in [34], 66.5 µL/min. Besides, the half-life in [1] was 35.4 min; in [15], 58.7 min; in [20], 21 min; in [13], 52.8 min; in [27] it was 18.7 min; in data set [31] it was 20.8 min. The half-life in data set [33] amounted to 9.6 min. The Activity result in data set [16] and in [28] was “Non-Toxic” in each case. In addition, the CLint scaled in data set [17] is 458 mL/min/kg; in data set [19] it was 1720 mL/min/kg; in [22], 347 mL/min/kg; in data set [23] it was 65.7 mL/min/kg; in data set [24], 237 mL/min/kg. Moreover, the values for the IC50 in the data set on Pfeiffer [2], in the data set on KARPAS-422 [3] and in the data set with WSUDLCL2 were 2.26 nM, 3.86 nM and 6.44 nM, respectively. Further, the concentration at 8 h in data set [18] is 416 ng/mL. For the same compound, the inhibition in vivo at 100 mg/kg in the data set on KARPAS-422 [21] amounted to 20.2%; in the data set on Pfeiffer [30], 71.9%. The compound further registered a clearance in data set [4] of 12.4 mL/min/kg. Besides, in [5], the Vd was 0.623 L/kg. The AUC(0-t) stood at 4340 ng·h/mL in [6] and 2710 ng·h/mL in [9]. The bioavailability in [7] was 32%. Moreover, the Cmax in [8] came to 2010 ng/mL; in data set [11] it was 1950 ng/mL. Also, the concentration at 4 h in data set [32] came out at 2340 ng/mL. In addition, the AUC(0-inf) in [10] amounted to 2720 ng·h/mL; in data set [12], 4370 ng·h/mL.
